Measurements published in patent US20220289728A1, “MODULATORS OF TREX1” (Constellation Pharmaceuticals, Inc., priority 2019, published 2022).

Tests used:
full length human TREX1 = molecular target: T1, full length human TREX1 (Homo sapiens, UniProt Q9NSU2); assay: TREX1 Biochemical Assay (fluorescence, dsDNA substrate degradation); settings: 150 pM TREX1, 60 nM dsDNA substrate, 25 minutes at room temperature
T1 construct: N-terminally His-Tev tagged full length human TREX1; His-TEV (His tag with TEV site) (N); made in house; host or cells: E. coli
T1 sequence (Q9NSU2 1-314): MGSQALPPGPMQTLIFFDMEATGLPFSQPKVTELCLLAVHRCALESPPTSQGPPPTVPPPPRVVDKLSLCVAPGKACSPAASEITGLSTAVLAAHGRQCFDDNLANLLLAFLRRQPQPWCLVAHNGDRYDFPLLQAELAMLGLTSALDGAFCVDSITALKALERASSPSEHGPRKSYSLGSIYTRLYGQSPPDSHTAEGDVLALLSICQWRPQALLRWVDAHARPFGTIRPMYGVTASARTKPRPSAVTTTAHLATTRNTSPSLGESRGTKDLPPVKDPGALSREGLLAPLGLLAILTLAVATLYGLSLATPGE
Description: Degradation of the dsDNA liberates free fluorophore to produce a fluorescent signal. Specifically, 7.5 μL of N-terminally His-Tev tagged full length human TREX1 (expressed in E. coli and purified in house) in reaction buffer (50 mM Tris (pH 7.4), 150 mM NaCl, 2 mM DTT, 0.1 mg/mL BSA, 0.01% (v/v) Tween-20 and 100 mM MgCl2) was added to a 384-well Black ProxiPlate Plus (Perkin Elmer) which already contained compound (150 nL) at varying concentrations as a 10 point dose-response in DMSO. To this was added 7.5 μL of dsDNA substrate (Strand A: 5′ TEX615/GCT AGG CAG 3′; Strand B: 5′ CTG CCT AGC/IAbRQSp (Integrated DNA Technologies)) in reaction buffer. Final concentrations were 150 pM TREX1, 60 nM dsDNA substrate in reaction buffer with 1.0% DMSO (v/v). After 25 minutes at room temperature, reactions were quenched by the addition of 5 μL of stop buffer (same as reaction buffer plus 200 mM EDTA). Final concentrations in the quenched reaction were 112.5 pM TREX1, 45 nM DNA and 50 mM EDTA in a volume of 20 μL. After a 5-minute incubation at room temperature, plates were read in a laser sourced Envision (Perkin-Elmer), measuring fluorescence at 615 nm following excitation w/570 nm light. IC50 values were calculated by comparing the measured fluorescence at 615 nm ratio relative to control wells pre-quenched w/stop buffer (100% inhibition) and no inhibitor (0% inhibition) controls as using non-linear least square four parameter fits and either Genedata or GraphPad Prism (GraphPad Software, Inc.).

[1] = molecular target: T2, human TREX2 (residues M44-A279) (Homo sapiens, UniProt Q9BQ50); assay: TREX2 Biochemical Assay (fluorescence, dsDNA substrate degradation); settings: 2.5 nM TREX2, 60 nM dsDNA substrate, 25 minutes at room temperature
T2 construct: human TREX2 (residues M44-A279, expressed in E. coli); His-TEV (His tag with TEV site) (N); made in house; host or cells: E. coli
T2 sequence (Q9BQ50 44-279 isoform Q9BQ50-1): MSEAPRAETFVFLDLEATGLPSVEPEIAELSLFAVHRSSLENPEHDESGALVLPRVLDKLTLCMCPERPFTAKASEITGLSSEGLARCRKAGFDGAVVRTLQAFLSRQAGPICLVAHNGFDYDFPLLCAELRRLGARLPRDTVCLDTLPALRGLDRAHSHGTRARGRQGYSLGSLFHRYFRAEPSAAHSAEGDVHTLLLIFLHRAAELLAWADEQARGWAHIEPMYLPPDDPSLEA
Description: Degradation of the dsDNA liberates free fluorophore to produce a fluorescent signal. Specifically, 7.5 μL of N-terminally His-Tev tagged human TREX2 (residues M44-A279, expressed in E. coli and purified in house) in reaction buffer (50 mM Tris (pH 7.4), 150 mM NaCl, 2 mM DTT, 0.1 mg/mL BSA, 0.01% (v/v) Tween-20 and 100 mM MgCl2) was added to a 384-well Black ProxiPlate Plus (Perkin Elmer) which already contained compound (150 nL) at varying concentrations as a 10 point dose-response in DMSO. To this was added 7.5 μL of dsDNA substrate (Strand A: 5′ TEX615/GCT AGG CAG 3′; Strand B: 5′ CTG CCT AGC/IAbRQSp (IDT)) in reaction buffer. Final concentrations were 2.5 nM TREX2, 60 nM dsDNA substrate in reaction buffer with 1.0% DMSO (v/v). After 25 minutes at room temperature, reactions were quenched by the addition of 5 μL of stop buffer (same as reaction buffer plus 200 mM EDTA). Final concentrations in the quenched reaction mixture were […] TREX2, 45 nM DNA and 50 mM EDTA in a volume of 20 μL. After a 5-minute incubation at room temperature, plates were read in a laser sourced Envision (Perkin-Elmer), measuring fluorescence at 615 nm following excitation w/570 nm light. IC50 values were calculated by comparing the measured fluorescence at 615 nm ratio relative to control wells pre-quenched w/stop buffer (100% inhibition) and no inhibitor (0% inhibition) controls as using non-linear least square four parameter fits and either Genedata or GraphPad Prism (GraphPad Software, Inc.).

HCT116 dual cells = assay: HCT116 Cell Assay (Lucia luciferase reporter of Type I interferon induction); type: cell-based, human; settings: pBR322/BstNI DNA transfection, Lucia luciferase at 48 h, relative to 10 uM compound 39
Source text: HCT116 dual cells (Invivogen, San Diego, Calif., USA) are derived from the human HCT116 colorectal carcinoma cell line. Cells have been selected for the stable integration of SEAP and Luciferase reporter genes, which expression is under the control of 5 tandem response elements for NF-KB/AP1 and STAT1/STAT2, respectively. The cell line was used to monitor Type I interferon induction and subsequent signaling by measuring the activity of the Lucia luciferase secreted in the culture medium.
HCT116 cells were plated in 96-well plate(s) at 40,000 cells/well in 100 uL DMEM supplemented with 10% FBS and 25 mM Hepes (pH 7.2-7.5). After overnight settling, cells were treated with TREX1i for 4 h (maximum DMSO fraction was 0.1%) before 1.25 ug/mL pBR322/BstNI restriction digest (New England Biolabs, Ipswich, Mass., USA) was transfected with Lipofectamine LTX (ThermoFisher, Grand Island, N.Y., USA), according to product manual recommendations. Briefly, Lipofectamine LTX (0.4 uL/well) was diluted in OptiMEM (5 uL/well). pBR322/BstNI (100 ng/well) was diluted in OptiMEM (5 uL/well) before Plus reagent (0.1 uL/100 ng DNA) was added. After 5 min incubation at room temperature, the DNA mixture was mixed dropwise with the diluted Lipofectamine LTX. After an additional 10 min incubation, the transfection mix (10 uL/well) was added to the cells. Cells were maintained at 37° C. for 48 h before monitoring the Lucia Luciferase activity from the cell culture medium. EC50 values were calculated by comparing the measured luminescence relative to 10 uM compound 39 (100% inhibition) and no inhibitor (0% inhibition) controls using non-linear least-squares four parameter fits in either Genedata Screener or GraphPad Prism (GraphPad Software, Inc.).

[2] = Homo sapiens, HCT-116, 4 h pre-treatment

Structure (SMILES) | IC50 (full length human TREX1) [µM] | IC50 [1] [µM] | EC50 (HCT116 dual cells; [2]) [µM] | EC50 (HCT116 dual cells; 4 h pre-treatment) [µM]
Cn1c(N(CCOc2ccccc2)Cc2ccccc2)nc(C(=O)Nc2cnoc2)c(O)c1=O [Example 16] | < 0.1 | < 1 | 10 to 100 | –
CN(Cc1cc(Cl)ccc1Cl)c1nc(C(=O)Nc2cnoc2)c(O)c(=O)n1C [Example 5] | < 0.1 | 1 to 10 | 1 to 10 | –
CN(c1nc(C(=O)Nc2cnoc2)c(O)c(=O)n1C)C(c1ccccc1)c1ccccc1C(F)(F)F (single isomer, unassigned) [Example 84] | < 0.1 | < 1 | – | < 1
CCN(Cc1ccccc1)c1nc(C(=O)Nc2cnoc2)c(O)c(=O)n1C [Example 13, 2-(benzyl(ethyl)amino)-5-hydroxy-N-(isoxazol-4-yl)-1-methyl-6-oxo-1,6-dihydropyrimidine-4-carboxamide] | < 0.1 | 1 to 10 | 10 to 100 | –
CC(c1c(Cl)cccc1Cl)N(C)c1nc(C(=O)Nc2cnoc2)c(O)c(=O)n1C (single isomer, unassigned) [Example 70] | < 0.1 | < 1 | 1 to 10 | –
CN(C)C(=O)c1ccc(C(c2ccccc2)N(C)c2nc(C(=O)Nc3cnoc3)c(O)c(=O)n2C)c(Cl)c1 (single isomer, unassigned) [Example 93] | < 0.1 | 1 to 10 | 1 to 10 | –
CN(c1nc(C(=O)Nc2cnoc2)c(O)c(=O)n1C)C(c1ccccc1)c1ccccc1C(F)(F)F (single isomer, unassigned) [Example 83] | < 0.1 | < 1 | < 1 | –
Cc1cccnc1C(c1ccccc1)N(C)c1nc(C(=O)Nc2cnoc2)c(O)c(=O)n1C (single isomer, unassigned) [Example 58] | < 0.1 | 1 to 10 | 1 to 10 | –
CN(c1nc(C(=O)Nc2cnoc2)c(O)c(=O)n1C)C(c1ccccc1)c1ccccc1C#N (single isomer, unassigned) [Example 85] | < 0.1 | < 1 | < 1 | –
CN(c1nc(C(=O)Nc2cnoc2)c(O)c(=O)n1C)C(c1ccccc1Cl)C1CC1 (single isomer, unassigned) [Example 69] | < 0.1 | < 1 | – | < 1
CN(Cc1c(Cl)cccc1Cl)c1nc(C(=O)Nc2cnoc2)c(O)c(=O)n1C [Example 4] | < 0.1 | < 1 | 1 to 10 | –
Cc1cccnc1C(c1ccccc1)N(C)c1nc(C(=O)Nc2cnoc2)c(O)c(=O)n1C (single isomer, unassigned) [Example 59] | < 0.1 | < 1 | – | < 1
CN(C)C(=O)c1ccc(C(c2ccccc2)N(C)c2nc(C(=O)Nc3cnoc3)c(O)c(=O)n2C)c(Cl)c1 (single isomer, unassigned) [Example 94] | < 0.1 | < 1 | – | < 1

The next lines start with the values.

IC50 (full length human TREX1) [µM] | IC50 [1] [µM] | EC50 (HCT116 dual cells; [2]) [µM] | EC50 (HCT116 dual cells; 4 h pre-treatment) [µM] | Structure (SMILES)
< 0.1 | < 1 | 1 to 10 | – | CCN(c1nc(C(=O)Nc2cnoc2)c(O)c(=O)n1C)C(c1ccccc1)c1ccccc1Cl (single isomer, unassigned) [Example 91]
< 0.1 | 1 to 10 | 1 to 10 | – | CN(Cc1cccc2ccccc12)c1nc(C(=O)Nc2cnoc2)c(O)c(=O)n1C [Example 15]
< 0.1 | < 1 | < 1 | – | Cc1cccc(Cl)c1C(c1ccccn1)N(C)c1nc(C(=O)Nc2cnoc2)c(O)c(=O)n1C (single isomer, unassigned) [Example 62]
< 0.1 | < 1 | < 1 | – | CN(c1nc(C(=O)Nc2cnoc2)c(O)c(=O)n1C)C(c1ccccc1)c1ncccc1Cl (single isomer, unassigned) [Example 53]
< 0.1 | 1 to 10 | 10 to 100 | – | CN(c1nc(C(=O)Nc2cnoc2)c(O)c(=O)n1C)C(C)(c1ccccc1)c1ccccc1 [Example 52]
< 0.1 | < 1 | < 1 | – | CN(c1nc(C(=O)Nc2cnoc2)c(O)c(=O)n1C)C(c1cccc(C#N)c1)c1ccccc1Cl (single isomer, unassigned) [Example 95]
< 0.1 | 1 to 10 | 10 to 100 | – | CN(Cc1cccnc1)c1nc(C(=O)Nc2cnoc2)c(O)c(=O)n1C [Example 32]
< 0.1 | < 1 | – | 1 to 10 | CN(c1nc(C(=O)Nc2cnoc2)c(O)c(=O)n1C)C(c1ccccc1)c1cccc(C#N)c1 (single isomer, unassigned) [Example 51]
< 0.1 | < 1 | < 1 | – | CN(c1nc(C(=O)Nc2cnoc2)c(O)c(=O)n1C)C(c1ccccc1)c1ccccc1Cl (single isomer, unassigned) [Example 39]
< 0.1 | 10 to 100 | 10 to 100 | – | CN(Cc1ccc(Cl)cc1)c1nc(C(=O)Nc2cnoc2)c(O)c(=O)n1C [Example 9]
< 0.1 | < 1 | – | < 1 | CN(c1nc(C(=O)Nc2cnoc2)c(O)c(=O)n1C)C(c1ccccn1)c1c(Cl)cccc1Cl (single isomer, unassigned) [Example 61]
